Data as given in paper PMC3749867, “Evolutionarily conserved structural changes in phosphatidylinositol 5-phosphate 4-kinase (PI5P4K) isoforms are responsible for differences in enzyme activity and localization” (Biochemical Journal, 2013).

Experiments:
[1] = molecular target: T1, PI5P4Kγ (Homo sapiens, UniProt Q8TBX8, E153T/N195G/E196V/D197E, form not given); conditions: read-out: Km (μM ATP); PtdIns5P co-substrate, 10 mM MgCl2, pH 7.4, 30 °C, ATP 0–150 μM
T1 construct: gene PIP4K2C

[2] = molecular target: T2, dPIP4K (Drosophila melanogaster, UniProt A4V141); experiment: radiometric lipid kinase assay, TLC; type: biochemical; conditions: PtdIns5P co-substrate, 10 mM MgCl2, pH 7.4, 30 °C; labelled compound
T2 construct: gene PIP4K; pGEX6P, E. coli BL21(DE3), GST fusion or GST cleaved by PreScission
T2 sequence (A4V141 1-404): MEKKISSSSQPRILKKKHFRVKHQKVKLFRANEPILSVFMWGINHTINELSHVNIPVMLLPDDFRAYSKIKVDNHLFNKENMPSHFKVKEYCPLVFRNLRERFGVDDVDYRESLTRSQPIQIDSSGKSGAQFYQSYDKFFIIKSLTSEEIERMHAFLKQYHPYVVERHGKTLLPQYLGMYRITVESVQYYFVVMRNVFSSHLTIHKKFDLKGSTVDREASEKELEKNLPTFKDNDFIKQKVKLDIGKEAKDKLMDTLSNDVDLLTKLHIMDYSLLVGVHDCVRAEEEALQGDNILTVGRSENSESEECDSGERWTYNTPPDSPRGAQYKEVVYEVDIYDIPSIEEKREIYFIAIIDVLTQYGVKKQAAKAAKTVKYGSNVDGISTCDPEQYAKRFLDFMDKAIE

[3] = molecular target: T3, PI5P4Kβ (Homo sapiens, UniProt P78356); experiment: radiometric lipid kinase assay, TLC; type: biochemical; conditions: read-out: Km (μM ATP); PtdIns5P co-substrate, 10 mM MgCl2, pH 7.4, 30 °C, ATP 0–150 μM
T3 construct: gene PIP4K2B; full-length cDNA in pGEX6P, E. coli BL21(DE3), GST fusion or GST cleaved by PreScission; mutant PI5P4Kβ+ His-tagged; homodimer
T3 sequence (P78356 1-416): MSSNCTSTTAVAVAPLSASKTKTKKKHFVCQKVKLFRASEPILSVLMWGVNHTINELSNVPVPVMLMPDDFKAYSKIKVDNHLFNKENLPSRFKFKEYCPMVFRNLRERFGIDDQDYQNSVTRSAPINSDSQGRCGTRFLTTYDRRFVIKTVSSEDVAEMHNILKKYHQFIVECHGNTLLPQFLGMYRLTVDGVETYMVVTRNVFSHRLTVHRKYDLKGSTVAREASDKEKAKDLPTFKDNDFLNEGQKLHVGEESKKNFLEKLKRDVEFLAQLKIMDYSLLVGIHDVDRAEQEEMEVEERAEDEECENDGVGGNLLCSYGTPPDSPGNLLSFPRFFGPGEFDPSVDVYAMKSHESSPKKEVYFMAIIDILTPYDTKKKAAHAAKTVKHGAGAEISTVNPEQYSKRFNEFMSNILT
Text: radiometric lipid kinase assay, TLC on PI5P4Kβ

[4] = molecular target: T4, PPK-2 (Caenorhabditis elegans, UniProt Q9BL73); experiment: radiometric lipid kinase assay, TLC; type: biochemical; conditions: PtdIns5P co-substrate, 10 mM MgCl2, pH 7.4, 30 °C; labelled compound
T4 construct: pGEX6P, E. coli BL21(DE3), GST fusion or GST cleaved by PreScission
T4 sequence (Q9BL73 1-401): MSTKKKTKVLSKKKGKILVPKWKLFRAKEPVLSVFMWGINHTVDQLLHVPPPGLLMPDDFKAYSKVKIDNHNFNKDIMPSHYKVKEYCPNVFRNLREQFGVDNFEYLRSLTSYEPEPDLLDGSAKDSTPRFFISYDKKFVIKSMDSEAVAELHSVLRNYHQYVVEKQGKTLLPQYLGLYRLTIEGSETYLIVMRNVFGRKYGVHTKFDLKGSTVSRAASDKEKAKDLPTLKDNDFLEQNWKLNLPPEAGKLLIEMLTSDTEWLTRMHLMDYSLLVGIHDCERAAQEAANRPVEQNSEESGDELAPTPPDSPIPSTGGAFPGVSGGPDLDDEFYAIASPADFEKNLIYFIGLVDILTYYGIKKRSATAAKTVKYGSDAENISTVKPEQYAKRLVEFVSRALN

T1 sequence (Q8TBX8 2-421 E153T/N195G/E196V/D197E, form open): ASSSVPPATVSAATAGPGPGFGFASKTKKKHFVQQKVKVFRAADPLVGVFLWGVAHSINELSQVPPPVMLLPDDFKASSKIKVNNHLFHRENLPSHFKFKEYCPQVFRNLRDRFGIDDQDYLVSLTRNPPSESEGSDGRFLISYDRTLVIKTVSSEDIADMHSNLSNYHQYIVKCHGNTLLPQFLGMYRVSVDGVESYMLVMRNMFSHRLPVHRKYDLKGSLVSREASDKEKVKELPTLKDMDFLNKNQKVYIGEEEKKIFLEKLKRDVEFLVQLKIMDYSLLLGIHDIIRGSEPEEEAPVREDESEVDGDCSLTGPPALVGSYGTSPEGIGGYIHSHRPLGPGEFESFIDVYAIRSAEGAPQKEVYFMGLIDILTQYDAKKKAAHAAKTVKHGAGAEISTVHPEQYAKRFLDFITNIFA

Q: What does the source list for `Nc1ncnc2c1ncn2[C@@H]1O[C@H](COP(=O)(O)OP(=O)(O)OP(=O)(O)O)[C@@H](O)[C@H]1O` [ATP]?
A: Km [1]: 3.96 µM; radiometric lipid kinase assay, TLC [2]: We assayed the PI5P4K activity of recombinant dPIP4K from D. melanogaster; Km [3]: 7.58 µM; radiometric lipid kinase assay, TLC [4]: PPK-2 from C. elegans had a similar specific activity to that of PI5P4Kγ
